Source: US20230263822A1, “MODULATION OF FACTOR 11 EXPRESSION” (Ionis Pharmaceuticals, Inc., priority 2008, published 2023)
Read-outs that look alike come from different tables or passages of the source. Strand notation (5' to 3'): a small letter for the sugar, then the base; units joined by * are phosphorothioate-linked, units joined directly phosphodiester-linked; [ ] holds rarer units or linkages, { } end groups; capitals alone tell only the bases. e = 2'-O-(2-methoxyethyl) (MOE); [5mC] = 5-methylcytosine; d = 2'-deoxy (DNA)

Experiments:
[1] = tested on: human Factor 11 mRNA; test: Antisense inhibition of human Factor 11 in HepG2 cells, electroporation, 8,000 nM (Example 30); format: cell-based; conditions: electroporation, 8,000 nM antisense oligonucleotide
In short: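 HepG2 cells electroporated with 8,000 nM 5-10-5, 5-8-5 or 6-8-6 MOE gapmers (phosphorothioate, 5-methylcytidine), ~24 h. Factor 11 mRNA quantified by qRT-PCR, normalised to RIBOGREEN total RNA. Reported as percent inhibition versus untreated cells.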

[2] = tested on: human Factor 11 mRNA; test: Dose-dependent inhibition of human Factor 11 in HepG2 cells, electroporation 123.46-10,000 nM (Example 31); format: cell-based; conditions: for Percent inhibition of Factor 11 mRNA at 123.47 nM / Percent inhibition of Factor 11 mRNA at 370.37 nM / IC50: electroporation; for Percent inhibition of Factor 11 mRNA at 123.47 nM / Percent inhibition of Factor 11 mRNA at 370.37 nM / Percent inhibition of Factor 11 mRNA at 1,111.11 nM / Percent inhibition of Factor 11 mRNA at 3,333.33 nM / Percent inhibition of Factor 11 mRNA at 10,000.0 nM: approx. 16 hours, relative to untreated control cells; for Percent inhibition of Factor 11 mRNA at 1,111.11 nM: electroporation, 1,111.11 nM; for Percent inhibition of Factor 11 mRNA at 3,333.33 nM: electroporation, 3,333.33 nM; for Percent inhibition of Factor 11 mRNA at 10,000.0 nM: electroporation, 10,000.0 nM; for IC50: Factor 11 mRNA expression
Description: Cells were plated at a density of 20,000 cells per well and transfected using electroporation with 123.46 nM, 370.37 nM, 1,111.11 nM, 3,333.33 nM and 10,000 nM concentrations of antisense oligonucleotide, as specified in Table 45. After a treatment period of approximately 16 hours, RNA was isolated from the cells and Factor 11 mRNA levels were measured by quantitative real-time PCR. Human Factor 11 primer probe set RTS 2966 was used to measure mRNA levels. Factor 11 mRNA levels were adjusted according to total RNA content, as measured by RIBOGREEN. Results are presented as percent inhibition of Factor 11, relative to untreated control cells.

[3] = Viscosity of ISIS antisense oligonucleotides, micro-viscometer at 25 °C (Example 47); format: physicochemical; conditions: for Concentration: concentration of the viscosity sample, UV reading at 260 nM at 85° C.; for Viscosity: in water, micro-viscometer at 25° C., at the concentration of the same line
Description: The viscosity of antisense oligonucleotides targeting human Factor 11 was measured with the aim of screening out antisense oligonucleotides which have a viscosity more than 40 cP at a concentration of 165-185 mg/mL.
ISIS oligonucleotides (32-35 mg) were weighed into a glass vial, 120 μL of water was added and the antisense oligonucleotide was dissolved into solution by heating the vial at 50° C. Part of (75 μL) the pre-heated sample was pipetted to a micro-viscometer (Cambridge). The temperature of the micro-viscometter was set to 25° C. and the viscosity of the sample was measured. Another part (20 μL) of the pre-heated sample was pipetted into 10 mL of water for UV reading at 260 nM at 85° C. (Cary UV instrument).

[4] = mouse, in vivo, sc, 50 mg/kg
[5] = mouse, in vivo, sc, 50 mg/kg; remark: listed apart in the source
[6] = mouse, in vivo, sc, 50 mg/kg; remark: listed apart in the source
[7] = mouse, in vivo, sc, 50 mg/kg; remark: listed apart in the source

In the case of “445498 (antisense eG*eG*eT*eG*e[5mC]*eA*d[5mC]*dA*dG*dT*dT*dT*d[5mC]*dT*eG*eG*e[5mC]*eA*eG*eG) [compound 445498]”, the “Percent inhibition of human Factor 11 mRNA levels” value [1] is reported as 83%, the “Percent inhibition of Factor 11 mRNA at 123.47 nM” value (shortened to “Percent inhibition … at 123.47 nM”) [2] is reported as 3% and the “Percent inhibition of Factor 11 mRNA at 370.37 nM” value (shortened to “Percent inhibition … at 370.37 nM”) [2] is reported as 1%. The “Percent inhibition of Factor 11 mRNA at 1,111.11 nM” value (shortened to “Percent inhibition … at 1,111.11 nM”) [2] was 27%, the “Percent inhibition of Factor 11 mRNA at 3,333.33 nM” value (“Percent inhibition … at 3,333.33 nM” for short) [2] was 50% and the “Percent inhibition of Factor 11 mRNA at 10,000.0 nM” value (“Percent inhibition … at 10,000.0 nM” below) [2] was 58%. The IC50 [2] was 4800 nM, the Concentration [3] was 157 mg/mL and the Viscosity [3] was 21 cP.

In the case of “445504 (antisense eG*eG*e[5mC]*eA*eT*eT*dG*dG*dT*dG*d[5mC]*dA*d[5mC]*dA*eG*eT*eT*eT*e[5mC]*eT) [compound 445504]”, the “Percent inhibition of human Factor 11 mRNA levels” value [1] is reported as 87%, the “Percent inhibition … at 123.47 nM” value [2] is reported as 8% and the “Percent inhibition … at 370.37 nM” value [2] is reported as 20%. The “Percent inhibition … at 1,111.11 nM” value [2] was 38%, the “Percent inhibition … at 3,333.33 nM” value [2] was 53% and the “Percent inhibition … at 10,000.0 nM” value [2] was 68%. The IC50 [2] was 2700 nM, the Concentration [3] was 139 mg/mL and the Viscosity [3] was 20 cP.

For “445505 (antisense e[5mC]*eG*eG*e[5mC]*eA*eT*dT*dG*dG*dT*dG*d[5mC]*dA*d[5mC]*eA*eG*eT*eT*eT*e[5mC]) [compound 445505]”, the “Percent inhibition of human Factor 11 mRNA levels” value [1] was 89%, the “Percent inhibition … at 123.47 nM” value [2] was 12% and the “Percent inhibition … at 370.37 nM” value [2] was 30%. For the same substance, the “Percent inhibition … at 1,111.11 nM” value [2] was 39%, the “Percent inhibition … at 3,333.33 nM” value [2] was 59% and the “Percent inhibition … at 10,000.0 nM” value [2] was 77%. The IC50 [2] was 1800 nM, the Concentration [3] was 155 mg/mL and the Viscosity [3] was 9 cP.

In the case of “445509 (antisense e[5mC]*eG*eG*eA*e[5mC]*eG*dG*d[5mC]*dA*dT*dT*dG*dG*dT*eG*e[5mC]*eA*e[5mC]*eA*eG) [compound 445509]”, the “Percent inhibition of human Factor 11 mRNA levels” value [1] is reported as 84%, the Concentration [3] is reported as 167 mg/mL and the Viscosity [3] is reported as >100 cP.

For “445513 (antisense eG*e[5mC]*eA*eG*e[5mC]*eG*dG*dA*d[5mC]*dG*dG*d[5mC]*dA*dT*eT*eG*eG*eT*eG*e[5mC]) [compound 445513]”, the “Percent inhibition of human Factor 11 mRNA levels” value [1] was 85%, the Concentration [3] was 167 mg/mL and the Viscosity [3] was 34 cP.

With “445530 (antisense eG*e[5mC]*eA*eT*eT*dG*dG*dT*dG*d[5mC]*dA*d[5mC]*dA*eG*eT*eT*eT*e[5mC]) [compound 445530]” the “Percent inhibition of human Factor 11 mRNA levels” value [1] was 83%, the Concentration [3] was 177 mg/mL and the Viscosity [3] was 25 cP.

With “ISIS 416849: MOE gapmer, nucleobases 1275 to 1318 of SEQ ID NO: 1 (Table 8) (antisense GCACAGTTTCTGGCAGGCCT; MOE gapmer, wing and gap sizes not given here)” the ALT [4] was 1056 IU/L, the AST [4] was 582 IU/L and the Bilirubin [4] was 0.22 mg/dL. It also gave a Cholesterol [4] of 109 mg/dL, an HCT [5] of 48% and a Lymphocyte [5] of 6967 cells/μL. For the same substance, the Neutrophil [5] was 1522 cells/μL, the Platelets [5] was 744 10^3/μL and the RBC [5] was 9 10^6/μL. The WBC [5] was 9 10^3/μL, the hemoglobin [5] was 14 g/dL and the monocytes [5] was 253 cells/μL. The BUN [6] was 23 mg/dL.

For “ISIS 416853: MOE gapmer, nucleobases 1275 to 1318 of SEQ ID NO: 1 (Table 8) (antisense TTGGTGCACAGTTTCTGGCA; MOE gapmer, wing and gap sizes not given here)”, the ALT [4] was 1023 IU/L, the AST [4] was 1087 IU/L and the Bilirubin [4] was 0.25 mg/dL. For the same substance, the Cholesterol [4] was 164 mg/dL, the HCT [5] was 56% and the Lymphocyte [5] was 5184 cells/μL. The Neutrophil [5] was 2040 cells/μL, the Platelets [5] was 801 10^3/μL and the RBC [5] was 11 10^6/μL. The WBC [5] was 8 10^3/μL, the hemoglobin [5] was 17 g/dL and the monocytes [5] was 225 cells/μL. For the same substance, the BUN [6] was 22 mg/dL.

“ISIS 416854: MOE gapmer, nucleobases 1275 to 1318 of SEQ ID NO: 1 (Table 8) (antisense ATTGGTGCACAGTTTCTGGC; MOE gapmer, wing and gap sizes not given here)” gave an ALT [4] of 1613 IU/L, an AST [4] of 1140 IU/L and a Bilirubin [4] of 0.21 mg/dL. The Cholesterol [4] was 199 mg/dL, the HCT [5] was 43% and the Lymphocyte [5] was 9375 cells/μL. For the same substance, the Neutrophil [5] was 2082 cells/μL, the Platelets [5] was 1060 10^3/μL and the RBC [5] was 9 10^6/μL. For the same substance, the WBC [5] was 12 10^3/μL, the hemoglobin [5] was 13 g/dL and the monocytes [5] was 455 cells/μL. The BUN [6] was 27 mg/dL.

“ISIS 416855: MOE gapmer, nucleobases 1275 to 1318 of SEQ ID NO: 1 (Table 8) (antisense CATTGGTGCACAGTTTCTGG; MOE gapmer, wing and gap sizes not given here)” gave an ALT [4] of 786 IU/L, an AST [4] of 580 IU/L and a Bilirubin [4] of 0.25 mg/dL. It also gave a Cholesterol [4] of 162 mg/dL, an HCT [5] of 50% and a Lymphocyte [5] of 4236 cells/μL. The Neutrophil [5] was 1443 cells/μL, the Platelets [5] was 784 10^3/μL and the RBC [5] was 9 10^6/μL. The WBC [5] was 6 10^3/μL, the hemoglobin [5] was 14 g/dL and the monocytes [5] was 263 cells/μL. It also gave a BUN [6] of 23 mg/dL.

Work on “ISIS 416857: MOE gapmer, nucleobases 1275 to 1318 of SEQ ID NO: 1 (Table 8) (antisense CGGCATTGGTGCACAGTTTC; MOE gapmer, wing and gap sizes not given here)” yielded an ALT [4] of 370 IU/L, an AST [4] of 269 IU/L and a Bilirubin [4] of 0.22 mg/dL. For the same substance, the Cholesterol [4] was 94 mg/dL, the HCT [5] was 53% and the Lymphocyte [5] was 3697 cells/μL. The Neutrophil [5] was 1334 cells/μL, the Platelets [5] was 603 10^3/μL and the RBC [5] was 10 10^6/μL. For the same substance, the WBC [5] was 6 10^3/μL, the hemoglobin [5] was 15 g/dL and the monocytes [5] was 215 cells/μL. It also gave a BUN [6] of 17 mg/dL.

“ISIS 416862: MOE gapmer, nucleobases 1275 to 1318 of SEQ ID NO: 1 (Table 8) (antisense AGCGGACGGCATTGGTGCAC; MOE gapmer, wing and gap sizes not given here)” gave an ALT [4] of 225 IU/L, an AST [4] of 172 IU/L and a Bilirubin [4] of 0.36 mg/dL. The Cholesterol [4] was 103 mg/dL, the HCT [5] was 49% and the Lymphocyte [5] was 4445 cells/μL. For the same substance, the Neutrophil [5] was 1118 cells/μL, the Platelets [5] was 1007 10^3/μL and the RBC [5] was 9 10^6/μL. For the same substance, the WBC [5] was 6 10^3/μL, the hemoglobin [5] was 14 g/dL and the monocytes [5] was 174 cells/μL. It also gave a BUN [6] of 21 mg/dL.

“ISIS 416865: MOE gapmer, nucleobases 1275 to 1318 of SEQ ID NO: 1 (Table 8) (antisense TGGCAGCGGACGGCATTGGT; MOE gapmer, wing and gap sizes not given here)” showed an ALT [4] of 383 IU/L, an AST [4] of 262 IU/L and a Bilirubin [4] of 0.27 mg/dL. It also gave a Cholesterol [4] of 95 mg/dL, an HCT [5] of 50% and a Lymphocyte [5] of 5148 cells/μL. For the same substance, the Neutrophil [5] was 1227 cells/μL, the Platelets [5] was 872 10^3/μL and the RBC [5] was 9 10^6/μL. For the same substance, the WBC [5] was 7 10^3/μL, the hemoglobin [5] was 14 g/dL and the monocytes [5] was 315 cells/μL. It also gave a BUN [6] of 20 mg/dL.

With “ISIS 445513, (antisense GCAGCGGACGGCATTGGTGC; 6-8-6 MOE gapmer, further chemistry not given here)” the HCT [7] was 50%, the RBC [7] was 9.8 and the WBC [7] was 7. It also gave a hemoglobin [7] of 15.0 g/dL.
